Measurements reported in ChEMBL document CHEMBL5052840, “Pharmaceutical compounds and therapeutic methods” (2020).
Active and inactive are the calls of the source. The calls are words filed in the database; no cut-off is given here.

Key:
[1] = molecular target: T1, Polycomb complex protein BMI-1 (Homo sapiens) (UniProt P35226); assay: Inhibition of BMI1 in human Glioblastoma cell 3D spheres at 7 to 10 nM assessed as reduction in BMI1 protein levels measured by Western blotting method; assay type: cell-based; settings: Glioblastoma cell line, dose 7-10 nM
T1 sequence (whole entry): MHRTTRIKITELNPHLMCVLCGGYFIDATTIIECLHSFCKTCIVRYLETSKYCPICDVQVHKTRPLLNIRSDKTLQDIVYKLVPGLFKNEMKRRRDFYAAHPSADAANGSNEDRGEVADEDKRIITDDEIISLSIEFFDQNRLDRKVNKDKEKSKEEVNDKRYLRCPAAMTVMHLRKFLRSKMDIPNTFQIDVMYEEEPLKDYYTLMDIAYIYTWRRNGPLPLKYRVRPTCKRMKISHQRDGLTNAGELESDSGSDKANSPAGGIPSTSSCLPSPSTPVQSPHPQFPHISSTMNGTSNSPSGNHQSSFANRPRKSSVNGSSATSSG

[2] = molecular target: T1, Polycomb complex protein BMI-1 (Homo sapiens); assay: Inhibition of BMI1 in human Glioblastoma cell 3D spheres at 7 to 10 nM assessed as reduction in phospho-RB levels measured by Western blotting method; assay type: cell-based; settings: Glioblastoma cell line, dose 7-10 nM
[3] = molecular target: T1, Polycomb complex protein BMI-1 (Homo sapiens); assay: Inhibition of BMI1 in human Glioblastoma cell 3D spheres at 7 to 10 nM assessed as reduction in STAT1 levels measured by Western blotting method; assay type: cell-based; settings: Glioblastoma cell line, dose 7-10 nM
[4] = Plasma concentration in male C57BL/6 mouse at 10 mg/kg, ip administered as single dose measured at 0.08 hrs measured by LC/MS-MS analysis; assay type: ADME, organism-based
[5] = Plasma concentration in male C57BL/6 mouse at 10 mg/kg, ip administered as single dose measured at 0.35 hrs measured by LC/MS-MS analysis; assay type: ADME, organism-based
[6] = Plasma concentration in male C57BL/6 mouse at 10 mg/kg, ip administered as single dose measured at 1 hr measured by LC/MS-MS analysis; assay type: ADME, organism-based
[7] = Plasma concentration in male C57BL/6 mouse at 10 mg/kg, ip administered as single dose measured at 3 hrs measured by LC/MS-MS analysis; assay type: ADME, organism-based
[8] = Plasma concentration in male C57BL/6 mouse at 10 mg/kg, po administered as single dose measured at 0.08 hrs measured by LC/MS-MS analysis; assay type: ADME, organism-based
[9] = Plasma concentration in male C57BL/6 mouse at 10 mg/kg, po administered as single dose measured at 0.35 hrs measured by LC/MS-MS analysis; assay type: ADME, organism-based
[10] = Plasma concentration in male C57BL/6 mouse at 10 mg/kg, po administered as single dose measured at 1 hr measured by LC/MS-MS analysis; assay type: ADME, organism-based
[11] = Brain concentration in male C57BL/6 mouse at 10 mg/kg, ip administered as single dose measured at 0.08 hrs measured by LC/MS-MS analysis; assay type: ADME, organism-based; settings: read-out: Drug uptake
[12] = Brain concentration in male C57BL/6 mouse at 10 mg/kg, ip administered as single dose measured at 1 hr measured by LC/MS-MS analysis; assay type: ADME, organism-based; settings: read-out: Drug uptake
[13] = Brain concentration in male C57BL/6 mouse at 10 mg/kg, ip administered as single dose measured at 3 hrs measured by LC/MS-MS analysis; assay type: ADME, organism-based; settings: read-out: Drug uptake
[14] = Brain concentration in male C57BL/6 mouse at 10 mg/kg, po administered as single dose measured at 3 hrs measured by LC/MS-MS analysis; assay type: ADME, organism-based; settings: read-out: Drug uptake
[15] = Brain concentration in male C57BL/6 mouse at 10 mg/kg, po administered as single dose measured at 6 hrs measured by LC/MS-MS analysis; assay type: ADME, organism-based; settings: read-out: Drug uptake
[16] = Brain concentration in male C57BL/6 mouse at 10 mg/kg, po administered as single dose measured at 12 hrs measured by LC/MS-MS analysis; assay type: ADME, organism-based; settings: read-out: Drug uptake
[17] = Ratio of drug level in male C57BL/6 mouse brain to plasma at 10 mg/kg, ip administered as single dose measured at 0.08 hrs measured by LC/MS-MS analysis; assay type: ADME, organism-based; settings: read-out: BPR
[18] = Ratio of drug level in male C57BL/6 mouse brain to plasma at 10 mg/kg, ip administered as single dose measured at 0.35 hrs measured by LC/MS-MS analysis; assay type: ADME, organism-based; settings: read-out: BPR
[19] = Ratio of drug level in male C57BL/6 mouse brain to plasma at 10 mg/kg, po administered as single dose measured at 0.08 hrs measured by LC/MS-MS analysis; assay type: ADME, organism-based; settings: read-out: BPR
[20] = Ratio of drug level in male C57BL/6 mouse brain to plasma at 10 mg/kg, po administered as single dose measured at 0.35 hrs measured by LC/MS-MS analysis; assay type: ADME, organism-based; settings: read-out: BPR
[21] = Ratio of drug level in male C57BL/6 mouse brain to plasma at 10 mg/kg, po administered as single dose measured at 1 hr measured by LC/MS-MS analysis; assay type: ADME, organism-based; settings: read-out: BPR
[22] = Ratio of drug level in male C57BL/6 mouse brain to plasma at 10 mg/kg, po administered as single dose measured at 3 hrs measured by LC/MS-MS analysis; assay type: ADME, organism-based; settings: read-out: BPR
[23] = Plasma concentration in male C57BL/6 mouse at 10 mg/kg, iv administered as single dose measured at 0.35 hrs measured by LC/MS-MS analysis; assay type: ADME, organism-based
[24] = Plasma concentration in male C57BL/6 mouse at 10 mg/kg, iv administered as single dose measured at 1 hr measured by LC/MS-MS analysis; assay type: ADME, organism-based
[25] = Plasma concentration in male C57BL/6 mouse at 10 mg/kg, iv administered as single dose measured at 3 hrs measured by LC/MS-MS analysis; assay type: ADME, organism-based
[26] = Brain concentration in male C57BL/6 mouse at 10 mg/kg, iv administered as single dose measured at 0.08 hrs measured by LC/MS-MS analysis; assay type: ADME, organism-based; settings: read-out: Drug uptake
[27] = Brain concentration in male C57BL/6 mouse at 10 mg/kg, iv administered as single dose measured at 1 hr measured by LC/MS-MS analysis; assay type: ADME, organism-based; settings: read-out: Drug uptake
[28] = Brain concentration in male C57BL/6 mouse at 10 mg/kg, iv administered as single dose measured at 3 hrs measured by LC/MS-MS analysis; assay type: ADME, organism-based; settings: read-out: Drug uptake
[29] = Ratio of drug level in male C57BL/6 mouse brain to plasma at 10 mg/kg, iv administered as single dose measured at 0.08 hrs measured by LC/MS-MS analysis; assay type: ADME, organism-based; settings: read-out: BPR
[30] = Ratio of drug level in male C57BL/6 mouse brain to plasma at 10 mg/kg, iv administered as single dose measured at 0.35 hrs measured by LC/MS-MS analysis; assay type: ADME, organism-based; settings: read-out: BPR
[31] = Ratio of drug level in male C57BL/6 mouse brain to plasma at 10 mg/kg, iv administered as single dose measured at 1 hr measured by LC/MS-MS analysis; assay type: ADME, organism-based; settings: read-out: BPR
[32] = Ratio of drug level in male C57BL/6 mouse brain to plasma at 10 mg/kg, iv administered as single dose measured at 3 hrs measured by LC/MS-MS analysis; assay type: ADME, organism-based; settings: read-out: BPR
[33] = Ratio of drug level in male C57BL/6 mouse brain to plasma at 10 mg/kg, iv administered as single dose measured at 6 hrs measured by LC/MS-MS analysis; assay type: ADME, organism-based; settings: read-out: BPR

For `Cc1nc2ccccn2c1-c1csc(Nc2ccc3c(c2)OC(F)(F)O3)n1.Cl`, the inhibition [1] was “Active”, the inhibition [2] was “Active” and the inhibition [3] was “Active”. The concentration at 0.08 h [4] was 713 ng/mL, the concentration at 0.35 h [5] was 426 ng/mL and the concentration at 1 h [6] was 79.1 ng/mL. The concentration at 3 h [7] was 1.43 ng/mL, the concentration at 0.08 h [8] was 175 ng/mL and the concentration at 0.35 h [9] was 138 ng/mL. For the same molecule, the concentration at 1 h [10] was 29.3 ng/mL, the concentration at 0.08 h [11] was 558 ng/g and the concentration at 1 h [12] was 159 ng/g. The concentration at 3 h [13] was 558 ng/g, the concentration at 3 h [14] was 5.78 ng/g and the concentration at 6 h [15] was 4.52 ng/g. For the same molecule, the concentration at 12 h [16] was 3.9 ng/g, the Kp at 0.08 h [17] was 1.05 and the Kp at 0.35 h [18] was 0.96. For the same molecule, the Kp at 0.08 h [19] was 0.78, the Kp at 0.35 h [20] was 1.6 and the Kp at 1 h [21] was 2.01. For the same molecule, the Kp at 3 h [22] was 4.34, the concentration at 0.35 h [23] was 535 ng/mL and the concentration at 1 h [24] was 80.7 ng/mL. The concentration at 3 h [25] was 5.64 ng/mL, the concentration at 0.08 h [26] was 1660 ng/g and the concentration at 1 h [27] was 225 ng/g. It also gave a concentration at 3 h [28] of 9.01 ng/g, a Kp at 0.08 h [29] of 1.07 and a Kp at 0.35 h [30] of 1.83. It also gave a Kp at 1 h [31] of 1.67, a Kp at 3 h [32] of 1.73 and a Kp at 6 h [33] of 1.81.
